Data from patent EP4685482A1, “METHOD FOR SELECTING DRUGS FOR THE TREATMENT OF MENTAL HEALTH PATHOLOGIES” (Neomente Corp, priority 2023, dated 2024).

System: Patients diagnosed with unipolar depression
Experiment: Clinical follow-up of patients with the SIGH-D-17 scale (treatment as usual vs guided by the Clinical Decision Support System), case examples
Type: in vivo
Details: for response to treatment regimen (patient history): Example 1: regimen of escitalopram, sertraline, risperidone, clonazepam and lamotrigine
Protocol: Patients diagnosed with unipolar depression were recruited and divided into two groups. The first group Treatment as Usual (TAU) received treatment according to psychiatry clinical guidelines. The second group received Clinical Decision Support System Guided (CCDSg) additional support from the method for selecting neuropsychiatric drugs. Follow-up was conducted using the SIGH-D-17 scale in both groups at the beginning of treatment and 8 and 12 weeks. […]
Based on the algorithm results, it was decided to discontinue the previous pharmacological regimen and initiate a new one consisting of desvenlafaxine and aripiprazole. A significant response was observed within 8 weeks of treatment initiation (69% reduction in SIGH-D-17 scale).
While awaiting the results of the application of this method, pharmacological treatment with sertraline was initiated. […] These findings are consistent with the genetic variations found (alteration of the CYP2C19 enzyme). Subsequently, and with the results of the application of this method, pharmacological treatment with vortioxetine was implemented, achieving remission at 12 weeks.
(53% reduction in SIGH-D-17 scale).

[1] = Example 1: person, severe unipolar depression, new regimen consisting of desvenlafaxine and aripiprazole, within 8 weeks of treatment initiation
[2] = Example 3: person, treatment-resistant unipolar depression
[3] = Example 4: person, depressive episode

Row | Structure (SMILES) | response (pharmacological history) [2] | response to treatment regimen (patient history) | also measured
1 | CN(C)CC(c1ccc(O)cc1)C1(O)CCCCC1 (stereo not shown) [Desvenlafaxine] | no response | – | reduction in SIGH-D-17 scale [1]: 69%
2 | COc1ccc(C(CN(C)C)C2(O)CCCCC2)cc1 (stereo not shown) [Venlafaxine] | – | – | response (pharmacological history) [3]: ineffective
3 | Cc1nc2n(c(=O)c1CCN1CCC(c3noc4cc(F)ccc34)CC1)CCCC2 [Risperidone] | – | subtherapeutic response | –
4 | CN[C@H]1CC[C@@H](c2ccc(Cl)c(Cl)c2)c2ccccc21 [Sertraline] | – | subtherapeutic response | side effects (Example 2: CYP2C19 intermediate metabolizer, treatment had to be discontinued): side effects at low doses
5 | O=c1ccc2ccc(OCCCCN3CCN(c4cccc5sccc45)CC3)cc2[nH]1 [Brexpiprazole] | – | – | reduction in SIGH-D-17 scale (Example 3: person, treatment-resistant unipolar depression, quetiapine gradually replaced by brexpiprazole, at 8 weeks of treatment): 53%
6 | CN(C)C(=O)N[C@H]1CC[C@H](CCN2CCN(c3cccc(Cl)c3Cl)CC2)CC1 [Cariprazine] | no response | – | –
7 | Nc1nnc(-c2cccc(Cl)c2Cl)c(N)n1 [lamotrigine] | – | subtherapeutic response | response (pharmacological history) [3]: ineffective
8 | N#Cc1ccc2[nH]cc(CCCCN3CCN(c4ccc5oc(C(N)=O)cc5c4)CC3)c2c1 [Vilazodone] | no response | – | –
9 | O=C1CN=C(c2ccccc2Cl)c2cc([N+](=O)[O-])ccc2N1 [clonazepam] | – | subtherapeutic response | response (pharmacological history) [3]: poor response
10 | Cc1ccc(Sc2ccccc2N2CCNCC2)c(C)c1 [Vortioxetine] | no response | – | reduction in SIGH-D-17 scale (Example 2: person, mild unipolar depression, vortioxetine, remission at 12 weeks): 67%
11 | CN(C)CCCN1c2ccccc2CCc2ccc(Cl)cc21 [Clomipramine] | no response | – | –
12 | CN(C)CCC[C@@]1(c2ccc(F)cc2)OCc2cc(C#N)ccc21 [Escitalopram] | no response | subtherapeutic response | –
13 | O=C1CCc2ccc(OCCCCN3CCN(c4cccc(Cl)c4Cl)CC3)cc2N1 [Aripiprazole] | – | – | reduction in SIGH-D-17 scale [1]: 69%
